Experiments:
CRBN/DDB1 = CRBN/DDB1 (Homo sapiens, UniProt Q96SW2); assay: HTRF binding assay (displacement of Cy5-thalidomide probe from CRBN/DDB1); settings: CRBN/DDB1 2.5 nM, Cy5-Thalidomide 100 nM, 30 min; geometric mean; read-out: HTRF_Thali_Disp_DR_geo_IC50
Procedure, shortened: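 HTRF displacement of Cy5-thalidomide probe (100 nM) from His-tagged CRBN/DDB1 (2.5 nM) with anti-His terbium cryptate, in HEPES/NaCl/TCEP/EDTA/Tween20 buffer; 10-point 1:3 series, 30 min at ambient temperature. 665/620 nm ratio fitted 4-parameter logistic for IC50; Ki via Cheng-Prusoff.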

GP2D = assay: Growth inhibition, CyQUANT Direct Cell Proliferation Assay, GP2D; format: cell-based; settings: GP2D cells, 120 to 168 hours
Procedure: (§1) SKCO1, LS180, and LS174T cell lines were purchased from ATCC. CW2 cell line was purchased from Riken. GP2D cell line was purchased from Sigma/ECACC. All cell lines were cultured in manufacturer's recommended media at 37° C., 5% CO2. Briefly, cells were suspended in 200 μL of media and seeded at 300 to 1,800 cells per well in tissue culture treated 96-well plates with black walls and clear bottom. Plates were incubated overnight and initial (TO) read was performed the following day using CyQUANT Direct Cell Proliferation Assay Kit (Thermo Fisher Scientific) according to manufacturer's protocol. All compounds were solubilized in DMSO and prepared at 3-fold serial dilution, using 9 points starting at 30 μM as highest concentration, administered to cells and incubated for 120 to 168 hours, at which point CyQUANT assay measurement was performed using Acumen Cellista instrument (Ex/Em 480/520 nm). Media-only wells were used as blank, and 0.3% DMSO was used as DMSO-treated cell control. Growth inhibition (percent response) was calculated using the following formula in Excel: “=if ([Compound treated Day N]>[Untreated Day 0, AVG], ([Compound treated Day N]− [Untreated Day 0, AVG])/([Untreated Day N]−[Untreated Day 0, AVG])*100, ([Compound Treated Day N]−[Untreated Day 0, AVG])/([Untreated Day 0, AVG])*100)”. GI50 is the response corresponding to the 50% of untreated control.
(§2) GI50 data are reported in Tables 4a, 4b, 4c, 4d, and 4e for compounds in Table 1. In Tables 4a, 4b, 4c, 4d, and 4e below, According to the code, A represents a GI50 value of ≤0.1 μM, B represents a GI50 value >0.1 μM and ≤1 μM, C represents an GI50 value >1 μM.

LS180 = assay: Growth inhibition, CyQUANT Direct Cell Proliferation Assay, LS180; format: cell-based; settings: Homo sapiens; LS180 cells, 120 to 168 hours
Procedure: as §1, §2

[1] = Mouse oral PK at 10 mg/kg; format: in vivo, Male BALB/c mice; settings: male, BALB/c, plasma
Procedure: Male BALB/c mice were fasted overnight and administered a discrete, oral (PO) dose of Compound 107 or Compound 125 at 10 mg/kg.
Blood samples were collected serially from three animals/time-point following PO administration of the test compounds to the mice and placed in tubes containing K2EDTA. The blood samples were centrifuged, and the aliquots of the resulting plasma stored frozen at −60 to −90° C.
The plasma samples were analyzed by LC-MS/MS to determine concentrations of the test compounds. The in-life portion of the study and the bioanalysis of plasma samples was conducted at Wuxi (China).
The pharmacokinetic parameters for the tested compounds were calculated by non-compartmental analysis using Phoenix WinNonlin software.

Chain of CRBN/DDB1 (Q96SW2 whole entry): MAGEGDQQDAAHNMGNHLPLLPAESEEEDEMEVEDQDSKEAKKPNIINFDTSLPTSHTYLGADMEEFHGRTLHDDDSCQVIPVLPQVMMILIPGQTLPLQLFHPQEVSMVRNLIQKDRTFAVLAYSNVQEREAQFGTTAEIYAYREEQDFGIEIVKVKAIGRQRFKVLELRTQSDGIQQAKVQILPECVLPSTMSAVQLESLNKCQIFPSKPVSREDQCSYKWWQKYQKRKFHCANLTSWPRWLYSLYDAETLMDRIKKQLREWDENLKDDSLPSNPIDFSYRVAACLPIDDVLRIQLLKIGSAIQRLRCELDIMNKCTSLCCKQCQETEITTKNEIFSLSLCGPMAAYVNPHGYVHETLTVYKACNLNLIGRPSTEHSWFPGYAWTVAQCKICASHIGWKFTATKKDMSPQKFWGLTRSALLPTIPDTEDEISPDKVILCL
Chain of CRBN/DDB1 (Q16531 whole entry partner): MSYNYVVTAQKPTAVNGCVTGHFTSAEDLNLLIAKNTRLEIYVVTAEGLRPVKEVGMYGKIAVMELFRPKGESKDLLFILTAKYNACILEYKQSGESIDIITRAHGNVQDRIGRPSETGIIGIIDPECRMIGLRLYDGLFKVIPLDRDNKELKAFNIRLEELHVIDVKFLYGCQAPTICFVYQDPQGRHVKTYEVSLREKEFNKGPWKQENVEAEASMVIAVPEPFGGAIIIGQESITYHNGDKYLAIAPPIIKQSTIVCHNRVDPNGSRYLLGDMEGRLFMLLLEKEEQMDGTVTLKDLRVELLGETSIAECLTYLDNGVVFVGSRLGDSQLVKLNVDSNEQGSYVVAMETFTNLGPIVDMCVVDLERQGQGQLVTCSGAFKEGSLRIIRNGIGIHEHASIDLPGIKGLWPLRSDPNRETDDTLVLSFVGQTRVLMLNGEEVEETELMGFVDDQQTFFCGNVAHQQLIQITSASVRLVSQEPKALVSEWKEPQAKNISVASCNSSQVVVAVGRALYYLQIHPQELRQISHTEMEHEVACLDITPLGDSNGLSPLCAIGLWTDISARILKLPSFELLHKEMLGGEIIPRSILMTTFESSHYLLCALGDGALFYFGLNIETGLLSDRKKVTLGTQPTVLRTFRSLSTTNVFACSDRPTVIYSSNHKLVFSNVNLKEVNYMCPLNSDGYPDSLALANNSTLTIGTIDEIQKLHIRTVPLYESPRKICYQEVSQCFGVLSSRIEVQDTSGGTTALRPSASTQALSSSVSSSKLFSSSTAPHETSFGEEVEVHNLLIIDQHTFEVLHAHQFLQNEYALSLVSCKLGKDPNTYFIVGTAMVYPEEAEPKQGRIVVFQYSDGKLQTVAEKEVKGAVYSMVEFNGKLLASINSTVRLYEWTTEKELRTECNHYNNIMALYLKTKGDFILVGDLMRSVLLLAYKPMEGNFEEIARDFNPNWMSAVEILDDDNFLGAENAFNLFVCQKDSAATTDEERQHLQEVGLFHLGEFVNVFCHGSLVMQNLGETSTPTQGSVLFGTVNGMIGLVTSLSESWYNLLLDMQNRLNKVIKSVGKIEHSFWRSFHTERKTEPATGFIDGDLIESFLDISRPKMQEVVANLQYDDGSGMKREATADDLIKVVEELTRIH

Row | IC50 (CRBN/DDB1) | Tmax [1] | AUC ([1]; Mean ± SD) | AUC(0-t) ([1]; Mean ± SD) | Cmax ([1]; Mean ± SD) | half-life ([1]; Mean ± SD) | SMILES | GI50 (GP2D) | GI50 (LS180)
1 | 0.1 to 1 µM | 1 h | 1860 ± 495 ng·h/mL | 1790 ± 504 ng·h/mL | 717 ± 167 ng/mL | – | C[C@@H]1CN(c2ccc3c(c2)CN(C2CCC(=O)NC2=O)C3=O)C(=O)N1c1ccc(C2CC2)cc1 (stereo partly drawn) [Compound 125, 3-(5-((R)-3-(4-cyclopropylphenyl)-4-methyl-2-oxoimidazolidin-1-yl)-1-oxoisoindolin-2-yl)piperidine-2,6-dione] | 0.1 to 1 µM | 0.1 to 1 µM
2 | 0.1 to 1 µM | 1 h | 5880 ± 1600 ng·h/mL | 5590 ± 1830 ng·h/mL | 1520 ± 262 ng/mL | 2.53 ± 0.37 h | C[C@@H]1CN(c2ccc3c(c2)CN(C2CCC(=O)NC2=O)C3=O)C(=O)N1c1ccccc1 (stereo partly drawn) [Compound 107, 3-(5-((R)-4-methyl-2-oxo-3-phenylimidazolidin-1-yl)-1-oxoisoindolin-2-yl)piperidine-2,6-dione] | 0.1 to 1 µM | –
3 | 0.1 to 1 µM | – | – | – | – | – | O=C1CCC(N2Cc3cc(N4CCN(c5ccccc5)C4=O)ccc3C2=O)C(=O)N1 (centres unmarked) [Compound 101, 3-(1-oxo-5-(2-oxo-3-phenylimidazolidin-1-yl)isoindolin-2-yl)piperidine-2,6-dione] | > 1 µM | > 1 µM
